Reference: patent publication US20220175768A1, “FGFR TYROSINE KINASE INHIBITORS FOR THE TREATMENT OF UROTHELIAL CARCINOMA” (Janssen Pharmaceutica NV, priority 2019, published 2022)

[1] = 10 mg intermittent, regimen 1 (n = 33)

Description: Study treatment was administered on 28-day cycles. Prior to interim analysis 1, there were 2 treatment regimens. Patients were randomized 1:1 to 28-day cycles to the following 2 regimens until a regimen was selected for further study: Regimen 1 (10 mg once daily intermittent (7 days on/7 days); Regimen 2 (6 mg once daily continuous). Randomization was stratified according to performance status (0 to 1 vs. 2), hemoglobin value (<10 vs. ≥10 g per dl), FGFR alteration type (mutation vs. fusion), prior treatment status (chemotherapy-resistant vs. chemotherapy naïve), and disease distribution (presence or absence of visceral [liver, lung, bone] metastases). Starting dose selection was based on phase 1 efficacy and tolerability.
Thus, after interim analysis, this became a single-arm study. […] Treatment continued until disease progression or unacceptable adverse event(s) per investigator.
All objective responses required confirmation by an additional investigator assessment within 4 to 6 weeks of first assessment. Disease evaluations for regimen 3 were also performed by an independent radiographic review committee. […] Safety was evaluated based on clinical laboratory tests, physical exams, electrocardiograms, and ophthalmology examinations. Adverse events and abnormalities were assessed by investigator and graded per NCI CTCAE v.4.0
Prophylactic measures were taken to minimize risk of common adverse events related to FGFR inhibition. To reduce risk of hyperphosphatemia, a low-phosphate diet was recommended for all patients (600 to 800 mg of dietary phosphate intake per day). To reduce the risk of skin effects, the application of alcohol-free emollient moisturizing cream and avoidance of unnecessary exposure to sunlight, soap, perfumed products, and hot baths was recommended. Patients were asked to keep their fingers and toes clean and nails trimmed to reduce risk of nail effects.
Additional ophthalmology examinations were performed if clinically indicated.

Compound: COc1cc(OC)cc(N(CCNC(C)C)c2ccc3ncc(-c4cnn(C)c4)nc3c2)c1 [erdafitinib, N-(3,5-dimethoxy-phenyl)-N′-(1-methylethyl)-N-[3-(1-methyl-1H-pyrazol-4-yl)quinoxalin-6-yl]ethane-1,2-diamine]
- Patients with Hematuria, Grade ≥3 [1]: 0 no. (%)
- Patients with Hyperphosphatemia, Any grade [1]: 16 (48) no. (%)
- Patients with Hyperphosphatemia, Grade 1 [1]: 15 (46) no. (%)
- Patients with Hyperphosphatemia, Grade 2 [1]: 1 (3) no. (%)
- Patients with Hyperphosphatemia, Grade ≥3 [1]: 0 no. (%)
- Patients with Hypomagnesemia, Any grade [1]: 2 (6) no. (%)
- Patients with Hypomagnesemia, Grade 1 [1]: 2 (6) no. (%)
- Patients with Hypomagnesemia, Grade 2 [1]: 0 no. (%)
- Patients with Hypomagnesemia, Grade ≥3 [1]: 0 no. (%)
- Patients with Hyponatremia, Any grade [1]: 2 (6) no. (%)
- Patients with Hyponatremia, Grade 1 [1]: 0 no. (%)
- Patients with Hyponatremia, Grade 2 [1]: 0 no. (%)
- Patients with Hyponatremia, Grade ≥3 [1]: 2 (6) no. (%)
- Patients with Insomnia, Any grade [1]: 3 (9) no. (%)
- Patients with Insomnia, Grade 1 [1]: 0 no. (%)
- Patients with Insomnia, Grade 2 [1]: 3 (9) no. (%)
- Patients with Insomnia, Grade ≥3 [1]: 0 no. (%)
- Patients with Lacrimation increased, Any grade [1]: 6 (18) no. (%)
- Patients with Lacrimation increased, Grade 1 [1]: 5 (15) no. (%)
- Patients with Lacrimation increased, Grade 2 [1]: 1 (3) no. (%)
- Patients with Lacrimation increased, Grade ≥3 [1]: 0 no. (%)
- Patients with Nail dystrophy, Any grade [1]: 2 (6) no. (%)
- Patients with Nail dystrophy, Grade 1 [1]: 2 (6) no. (%)
- Patients with Nail dystrophy, Grade 2 [1]: 0 no. (%)
- Patients with Nail dystrophy, Grade ≥3 [1]: 0 no. (%)
- Patients with Nausea, Any grade [1]: 5 (15) no. (%)
- Patients with Nausea, Grade 1 [1]: 3 (9) no. (%)
- Patients with Nausea, Grade 2 [1]: 2 (6) no. (%)
- Patients with Nausea, Grade ≥3 [1]: 0 no. (%)
- Patients with Onycholysis, Any grade [1]: 7 (21) no. (%)
- Patients with Onycholysis, Grade 1 [1]: 3 (9) no. (%)
- Patients with Onycholysis, Grade 2 [1]: 3 (9) no. (%)
- Patients with Onycholysis, Grade ≥3 [1]: 1 (3) no. (%)
- Patients with Onychomadesis, Any grade [1]: 1 (3) no. (%)
- Patients with Onychomadesis, Grade 1 [1]: 1 (3) no. (%)
- Patients with Onychomadesis, Grade 2 [1]: 0 no. (%)
- Patients with Onychomadesis, Grade ≥3 [1]: 0 no. (%)
- Patients with Oropharyngeal pain, Any grade [1]: 0 no. (%)
- Patients with Oropharyngeal pain, Grade 1 [1]: 0 no. (%)
- Patients with Oropharyngeal pain, Grade 2 [1]: 0 no. (%)
- Patients with Oropharyngeal pain, Grade ≥3 [1]: 0 no. (%)
- Patients with Pain in extremity, Any grade [1]: 5 (15) no. (%)
- Patients with Pain in extremity, Grade 1 [1]: 3 (9) no. (%)
- Patients with Pain in extremity, Grade 2 [1]: 1 (3) no. (%)
- Patients with Pain in extremity, Grade ≥3 [1]: 1 (3) no. (%)
- Patients with Paronychia, Any grade [1]: 2 (6) no. (%)
- Patients with Paronychia, Grade 1 [1]: 0 no. (%)
- Patients with Paronychia, Grade 2 [1]: 2 (6) no. (%)
- Patients with Paronychia, Grade ≥3 [1]: 0 no. (%)
- Patients with Peripheral edema, Any grade [1]: 5 (15) no. (%)
- Patients with Peripheral edema, Grade 1 [1]: 1 (3) no. (%)
- Patients with Peripheral edema, Grade 2 [1]: 4 (12) no. (%)
- Patients with Peripheral edema, Grade ≥3 [1]: 0 no. (%)
- Patients with Pyrexia, Any grade [1]: 5 (15) no. (%)
- Patients with Pyrexia, Grade 1 [1]: 5 (15) no. (%)
- Patients with Pyrexia, Grade 2 [1]: 0 no. (%)
- Patients with Pyrexia, Grade ≥3 [1]: 0 no. (%)
- Patients with Retinal detachment, Any grade [1]: 2 (6) no. (%)
- Patients with Retinal detachment, Grade 1 [1]: 1 (3) no. (%)
- Patients with Retinal detachment, Grade 2 [1]: 1 (3) no. (%)
- Patients with Retinal detachment, Grade ≥3 [1]: 0 no. (%)
- Patients with Stomatitis, Any grade [1]: 16 (48) no. (%)
- Patients with Stomatitis, Grade 1 [1]: 9 (27) no. (%)
- Patients with Stomatitis, Grade 2 [1]: 6 (18) no. (%)
- Patients with Stomatitis, Grade ≥3 [1]: 1 (3) no. (%)
- Patients with Urinary tract infection, Any grade [1]: 4 (12) no. (%)
- Patients with Urinary tract infection, Grade 1 [1]: 0 no. (%)
- Patients with Urinary tract infection, Grade 2 [1]: 2 (6) no. (%)
- Patients with Urinary tract infection, Grade ≥3 [1]: 2 (6) no. (%)
- Patients with Vision blurred, Any grade [1]: 5 (15) no. (%)
- Patients with Vision blurred, Grade 1 [1]: 4 (12) no. (%)
- Patients with Vision blurred, Grade 2 [1]: 1 (3) no. (%)
- Patients with Vision blurred, Grade ≥3 [1]: 0 no. (%)
- Patients with Vomiting, Any grade [1]: 9 (27) no. (%)
- Patients with Vomiting, Grade 1 [1]: 7 (21) no. (%)
- Patients with Vomiting, Grade 2 [1]: 2 (6) no. (%)
- Patients with Vomiting, Grade ≥3 [1]: 0 no. (%)
- Patients with Weight decreased, Any grade [1]: 3 (9) no. (%)
- Patients with Weight decreased, Grade 1 [1]: 1 (3) no. (%)
- Patients with Weight decreased, Grade 2 [1]: 2 (6) no. (%)
- Patients with Weight decreased, Grade ≥3 [1]: 0 no. (%)
- Serious treatment-emergent adverse event: Nervous system disorders [1]: 0 no.
- Serious treatment-emergent adverse event: Urinary tract infection [1]: 0 no.
- Serious treatment-emergent adverse event: Urosepsis [1]: 0 no.
- Treatment-related adverse event: Alopecia, Any grade [1]: 3 (9) no. (%)
- Treatment-related adverse event: Alopecia, Grade 1 [1]: 1 (3) no. (%)
- Treatment-related adverse event: Alopecia, Grade 2 [1]: 2 (6) no. (%)
- Treatment-related adverse event: Alopecia, Grade ≥3 [1]: 0 no. (%)
- Treatment-related adverse event: Asthenia, Any grade [1]: 6 (18) no. (%)
- Treatment-related adverse event: Asthenia, Grade 1 [1]: 2 (6) no. (%)
- Treatment-related adverse event: Asthenia, Grade 2 [1]: 2 (6) no. (%)
- Treatment-related adverse event: Asthenia, Grade ≥3 [1]: 2 (6) no. (%)
- Treatment-related adverse event: Conjunctivitis, Any grade [1]: 4 (12) no. (%)
- Treatment-related adverse event: Conjunctivitis, Grade 1 [1]: 3 (9) no. (%)
- Treatment-related adverse event: Conjunctivitis, Grade 2 [1]: 1 (3) no. (%)
- Treatment-related adverse event: Conjunctivitis, Grade ≥3 [1]: 0 no. (%)
- Treatment-related adverse event: Decreased appetite, Any grade [1]: 6 (18) no. (%)
- Treatment-related adverse event: Decreased appetite, Grade 1 [1]: 2 (6) no. (%)
- Treatment-related adverse event: Decreased appetite, Grade 2 [1]: 4 (12) no. (%)
- Treatment-related adverse event: Decreased appetite, Grade ≥3 [1]: 0 no. (%)
- Treatment-related adverse event: Diarrhea, Any grade [1]: 13 (39) no. (%)
- Treatment-related adverse event: Diarrhea, Grade 1 [1]: 7 (21) no. (%)
- Treatment-related adverse event: Diarrhea, Grade 2 [1]: 5 (15) no. (%)
- Treatment-related adverse event: Diarrhea, Grade ≥3 [1]: 1 (3) no. (%)
- Treatment-related adverse event: Dry mouth, Any grade [1]: 14 (42) no. (%)
- Treatment-related adverse event: Dry mouth, Grade 1 [1]: 13 (39) no. (%)
- Treatment-related adverse event: Dry mouth, Grade 2 [1]: 1 (3) no. (%)
- Treatment-related adverse event: Dry mouth, Grade ≥3 [1]: 0 no. (%)
- Treatment-related adverse event: Dry skin, Any grade [1]: 8 (24) no. (%)
- Treatment-related adverse event: Dry skin, Grade 1 [1]: 7 (21) no. (%)
- Treatment-related adverse event: Dry skin, Grade 2 [1]: 1 (3) no. (%)
- Treatment-related adverse event: Dry skin, Grade ≥3 [1]: 0 no. (%)
- Treatment-related adverse event: Dysgeusia, Any grade [1]: 10 (30) no. (%)
- Treatment-related adverse event: Dysgeusia, Grade 1 [1]: 7 (21) no. (%)
- Treatment-related adverse event: Dysgeusia, Grade 2 [1]: 3 (9) no. (%)
- Treatment-related adverse event: Dysgeusia, Grade ≥3 [1]: 0 no. (%)
- Treatment-related adverse event: Fatigue, Any grade [1]: 4 (12) no. (%)
- Treatment-related adverse event: Fatigue, Grade 1 [1]: 2 (6) no. (%)
- Treatment-related adverse event: Fatigue, Grade 2 [1]: 2 (6) no. (%)
- Treatment-related adverse event: Fatigue, Grade ≥3 [1]: 0 no. (%)
- Treatment-related adverse event: Hand-foot syndrome, Any grade [1]: 2 (6) no. (%)
- Treatment-related adverse event: Hand-foot syndrome, Grade 1 [1]: 0 no. (%)
- Treatment-related adverse event: Hand-foot syndrome, Grade 2 [1]: 2 (6) no. (%)
- Treatment-related adverse event: Hand-foot syndrome, Grade ≥3 [1]: 0 no. (%)
- Treatment-related adverse event: Hyperphosphatemia, Any grade [1]: 15 (46) no. (%)
- Treatment-related adverse event: Hyperphosphatemia, Grade 1 [1]: 14 (42) no. (%)
- Treatment-related adverse event: Hyperphosphatemia, Grade 2 [1]: 1 (3) no. (%)
- Treatment-related adverse event: Hyperphosphatemia, Grade ≥3 [1]: 0 no. (%)
- Treatment-related adverse event: Lacrimation increased, Any grade [1]: 4 (12) no. (%)
- Treatment-related adverse event: Lacrimation increased, Grade 1 [1]: 4 (12) no. (%)
- Treatment-related adverse event: Lacrimation increased, Grade 2 [1]: 0 no. (%)
- Treatment-related adverse event: Lacrimation increased, Grade ≥3 [1]: 0 no. (%)
- Treatment-related adverse event: Nausea, Any grade [1]: 5 (15) no. (%)
- Treatment-related adverse event: Nausea, Grade 1 [1]: 3 (9) no. (%)
- Treatment-related adverse event: Nausea, Grade 2 [1]: 2 (6) no. (%)
- Treatment-related adverse event: Nausea, Grade ≥3 [1]: 0 no. (%)
- Treatment-related adverse event: Onycholysis, Any grade [1]: 6 (18) no. (%)
- Treatment-related adverse event: Onycholysis, Grade 1 [1]: 2 (6) no. (%)
- Treatment-related adverse event: Onycholysis, Grade 2 [1]: 3 (9) no. (%)
- Treatment-related adverse event: Onycholysis, Grade ≥3 [1]: 1 (3) no. (%)
- Treatment-related adverse event: Onychomadesis, Any grade [1]: 1 (3) no. (%)
- Treatment-related adverse event: Onychomadesis, Grade 1 [1]: 1 (3) no. (%)
- Treatment-related adverse event: Onychomadesis, Grade 2 [1]: 0 no. (%)
- Treatment-related adverse event: Onychomadesis, Grade ≥3 [1]: 0 no. (%)
- Treatment-related adverse event: Paronychia, Any grade [1]: 2 (6) no. (%)
- Treatment-related adverse event: Paronychia, Grade 1 [1]: 0 no. (%)
- Treatment-related adverse event: Paronychia, Grade 2 [1]: 2 (6) no. (%)
- Treatment-related adverse event: Paronychia, Grade ≥3 [1]: 0 no. (%)
- Treatment-related adverse event: Retinal detachment, Any grade [1]: 2 (6) no. (%)
- Treatment-related adverse event: Retinal detachment, Grade 1 [1]: 1 (3) no. (%)
- Treatment-related adverse event: Retinal detachment, Grade 2 [1]: 1 (3) no. (%)
- Treatment-related adverse event: Retinal detachment, Grade ≥3 [1]: 0 no. (%)
- Treatment-related adverse event: Stomatitis, Any grade [1]: 16 (49) no. (%)
- Treatment-related adverse event: Stomatitis, Grade 1 [1]: 9 (27) no. (%)
- Treatment-related adverse event: Stomatitis, Grade 2 [1]: 6 (18) no. (%)
- Treatment-related adverse event: Stomatitis, Grade ≥3 [1]: 1 (3) no. (%)
- Treatment-related adverse event: Vision blurred, Any grade [1]: 5 (15) no. (%)
- Treatment-related adverse event: Vision blurred, Grade 1 [1]: 4 (12) no. (%)
- Treatment-related adverse event: Vision blurred, Grade 2 [1]: 1 (3) no. (%)
- Treatment-related adverse event: Vision blurred, Grade ≥3 [1]: 0 no. (%)
- Patients who required ≥1 dose reduction (41 patients of the 8 mg regimen uptitrated to 9 mg per day): 59%
- Hyperphosphatemia leading to dose reduction (Regimen 3): 9%
- Hyperphosphatemia reported (Regimen 3): 77%
- Patients discontinued due to treatment-emergent adverse events (Regimen 3): 13%
- Patients who required dose reduction (Regimen 3): 56%
- Stomatitis leading to dose reduction (Regimen 3): 16%
- Treatment-emergent adverse events grade 3 or 4 (Regimen 3): 67%
- Central serious retinopathy events resolved (all unresolved events were grade 1 or 2): Seventy-six
- Hyperphosphatemia managed by dose interruption (in vivo): 23%
- Time of peak phosphate elevation after erdafitinib initiation (normalized by cycle 5): 6 weeks
- Patients with grade ≥3 treatment-emergent adverse events (overall trial population): 66%
- Patients with grade 1 or 2 events among patients with eye disorders (patients with eye disorders (n=62)): 84%
